Experimental findings from patent US9434724B2, “Quinuclidines for modulating alpha 7 activity” (priority 2014, dated 2016) are described below.

Data set [1] concerns the target rat brain nicotinic receptor (α7 NAChR) (Rattus norvegicus (Rat), UniProt Q05941). In kind it is binding.
Data set [2] can be described thus: Metabolic stability assay in human liver microsomes (HLM). It counts as in vitro ADME. The note with it: 1 μM. In a few lines: (§1)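 In Protocol 1, compound was 1 μM final with NADPH at 37 °C, sampled at 0–45 min. In Protocol 2, 1.5 μM compound with 0.75 mg/mL microsomes (pre-NADPH mix) in 0.1 M potassium phosphate, 1 mM EDTA, pH 7.4 was pre-incubated 10 min, then NADPH started the reaction. Both: LC-MS/MS % remaining versus time 0, half-life from single-phase exponential fit.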

The nature of data set [3]: Metabolic stability assay in rat liver microsomes (RLM). In kind it is in vitro ADME. The note with it: 1 μM. In a few lines: as §1
In general terms: Liver microsomes are vesicles of endoplasmic reticulum, rich in cytochrome P450 enzymes.

The target in data set [4] is T1, CYP2C19 (Homo sapiens (Human), UniProt P33261). The following applies: microsomes.
Data set [5] addresses CYP1A2 (Homo sapiens (Human), UniProt P05177). The experiment in a line: Cytochrome P450 inhibition in human liver microsomes, CYP1A2.
Data set [6] concerns the target CYP2D6 (Homo sapiens (Human), UniProt P10635). The experiment in a line: Cytochrome P450 inhibition in human liver microsomes, CYP2D6.
The nature of data set [7]: Human plasma stability. In kind it is in vitro ADME. The following applies: plasma; for % Remaining @ 2 h: 5 μM. In a few lines: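 Compound remaining was quantified by LC-MS/MS as peak-area ratio to internal standard relative to time 0, with half-lives from single-exponential fits. Protocol 1 incubated 1 μM in heparinized human plasma (pH 7.4, 37° C) to 120 min; protocol 2 used 5 μM, pH 7.4–8.0, 37° C, n=2, to 120 min.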

Data set [8] deals with T2, CYP3A4 (Homo sapiens (Human), UniProt P08684). The following applies: microsomes, 5 min.
Data set [9] addresses CYP2C9 (Homo sapiens (Human), UniProt P11712). The experiment in a line: Cytochrome P450 inhibition in human liver microsomes, CYP2C9. The following applies: read-out: 2C9 IC50, Protocol 1.
The target in data set [10] is T1, CYP2C19. As to the kind of experiment: Cytochrome P450 inhibition in human liver microsomes, CYP2C19. The following applies: read-out: 2C19 IC50, Protocol 1.
Data set [11] deals with T2, CYP3A4. As to the kind of experiment: Cytochrome P450 inhibition in human liver microsomes, CYP3A4.
Where [12] appears, read: read-out: 3A4 IC50 (Midazolam), substrate midazolam, Protocol 1.
The mark [13] stands for this setting: read-out: 3A4 IC50 (Testosterone), substrate testosterone, Protocol 1.

Molecules are shown by their SMILES. Read-outs that look alike come from different tables or passages of the source.

Chain of rat brain nicotinic receptor (α7 NAChR) (Q05941 23-502 limits assumed): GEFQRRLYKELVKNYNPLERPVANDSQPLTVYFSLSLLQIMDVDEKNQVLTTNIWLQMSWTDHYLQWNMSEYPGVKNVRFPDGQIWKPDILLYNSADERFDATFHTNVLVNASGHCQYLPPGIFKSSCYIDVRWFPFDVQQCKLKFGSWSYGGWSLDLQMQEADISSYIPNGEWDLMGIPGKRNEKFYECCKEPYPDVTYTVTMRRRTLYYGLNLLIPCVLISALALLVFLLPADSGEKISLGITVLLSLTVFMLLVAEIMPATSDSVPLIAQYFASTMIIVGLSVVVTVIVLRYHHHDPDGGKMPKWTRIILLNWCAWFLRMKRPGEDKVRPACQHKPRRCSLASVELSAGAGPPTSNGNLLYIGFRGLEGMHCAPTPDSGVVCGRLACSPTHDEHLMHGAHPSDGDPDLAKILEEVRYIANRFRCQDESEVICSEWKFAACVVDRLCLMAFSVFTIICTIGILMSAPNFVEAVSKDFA
T2 sequence (P08684 whole entry): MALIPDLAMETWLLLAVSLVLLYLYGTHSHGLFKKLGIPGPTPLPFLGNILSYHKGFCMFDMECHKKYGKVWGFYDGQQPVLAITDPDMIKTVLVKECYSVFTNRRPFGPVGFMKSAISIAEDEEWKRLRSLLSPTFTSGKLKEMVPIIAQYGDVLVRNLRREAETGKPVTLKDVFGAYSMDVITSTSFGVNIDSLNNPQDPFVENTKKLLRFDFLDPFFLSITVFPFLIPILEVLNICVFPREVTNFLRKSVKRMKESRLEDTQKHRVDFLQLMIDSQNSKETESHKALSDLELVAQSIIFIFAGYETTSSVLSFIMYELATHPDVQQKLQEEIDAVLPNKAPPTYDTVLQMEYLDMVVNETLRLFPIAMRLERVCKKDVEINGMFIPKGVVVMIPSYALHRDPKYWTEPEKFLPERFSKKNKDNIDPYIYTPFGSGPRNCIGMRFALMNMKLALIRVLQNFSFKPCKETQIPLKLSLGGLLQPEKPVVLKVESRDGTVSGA
Chain of CYP2C9 (P11712 whole entry): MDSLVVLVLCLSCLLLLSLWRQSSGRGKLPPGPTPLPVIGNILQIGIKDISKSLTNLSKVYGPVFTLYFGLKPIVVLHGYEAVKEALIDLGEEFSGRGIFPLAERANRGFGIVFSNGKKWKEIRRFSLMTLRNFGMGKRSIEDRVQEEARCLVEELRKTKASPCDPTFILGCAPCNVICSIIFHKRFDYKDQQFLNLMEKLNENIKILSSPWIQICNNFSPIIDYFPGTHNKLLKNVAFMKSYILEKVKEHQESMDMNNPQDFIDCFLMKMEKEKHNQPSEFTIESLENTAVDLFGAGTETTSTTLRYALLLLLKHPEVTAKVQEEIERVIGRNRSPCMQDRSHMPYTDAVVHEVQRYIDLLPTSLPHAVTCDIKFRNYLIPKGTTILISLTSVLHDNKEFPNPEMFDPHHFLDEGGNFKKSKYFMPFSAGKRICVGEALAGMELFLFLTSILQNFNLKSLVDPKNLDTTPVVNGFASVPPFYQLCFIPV
T1 sequence (P33261 whole entry): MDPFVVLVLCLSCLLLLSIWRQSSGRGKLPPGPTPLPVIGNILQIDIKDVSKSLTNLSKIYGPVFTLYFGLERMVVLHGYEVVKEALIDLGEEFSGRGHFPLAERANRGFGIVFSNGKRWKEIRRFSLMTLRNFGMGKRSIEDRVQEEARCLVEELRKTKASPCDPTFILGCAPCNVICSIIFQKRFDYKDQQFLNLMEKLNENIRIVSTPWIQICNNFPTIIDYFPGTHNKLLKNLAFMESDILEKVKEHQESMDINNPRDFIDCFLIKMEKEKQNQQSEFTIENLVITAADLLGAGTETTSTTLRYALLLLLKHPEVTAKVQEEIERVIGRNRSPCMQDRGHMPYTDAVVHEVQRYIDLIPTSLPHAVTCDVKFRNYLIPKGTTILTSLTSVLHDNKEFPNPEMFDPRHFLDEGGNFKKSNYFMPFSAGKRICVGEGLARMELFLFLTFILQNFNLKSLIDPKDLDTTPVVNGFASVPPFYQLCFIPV
Chain of CYP1A2 (P05177 whole entry): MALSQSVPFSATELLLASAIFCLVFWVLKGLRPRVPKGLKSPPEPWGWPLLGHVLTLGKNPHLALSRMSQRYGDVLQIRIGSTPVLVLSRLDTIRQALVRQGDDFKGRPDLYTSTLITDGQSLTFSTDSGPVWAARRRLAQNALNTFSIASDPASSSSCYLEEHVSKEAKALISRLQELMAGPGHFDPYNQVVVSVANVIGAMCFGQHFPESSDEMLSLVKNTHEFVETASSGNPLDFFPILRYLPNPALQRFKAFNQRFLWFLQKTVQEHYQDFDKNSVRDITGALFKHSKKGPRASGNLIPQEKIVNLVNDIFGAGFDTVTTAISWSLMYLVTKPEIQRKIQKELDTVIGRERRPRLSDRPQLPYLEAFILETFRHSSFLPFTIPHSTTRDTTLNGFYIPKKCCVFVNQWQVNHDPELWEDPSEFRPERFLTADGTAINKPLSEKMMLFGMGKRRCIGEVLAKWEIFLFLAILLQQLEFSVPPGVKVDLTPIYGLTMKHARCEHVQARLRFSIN
Chain of CYP2D6 (P10635 whole entry): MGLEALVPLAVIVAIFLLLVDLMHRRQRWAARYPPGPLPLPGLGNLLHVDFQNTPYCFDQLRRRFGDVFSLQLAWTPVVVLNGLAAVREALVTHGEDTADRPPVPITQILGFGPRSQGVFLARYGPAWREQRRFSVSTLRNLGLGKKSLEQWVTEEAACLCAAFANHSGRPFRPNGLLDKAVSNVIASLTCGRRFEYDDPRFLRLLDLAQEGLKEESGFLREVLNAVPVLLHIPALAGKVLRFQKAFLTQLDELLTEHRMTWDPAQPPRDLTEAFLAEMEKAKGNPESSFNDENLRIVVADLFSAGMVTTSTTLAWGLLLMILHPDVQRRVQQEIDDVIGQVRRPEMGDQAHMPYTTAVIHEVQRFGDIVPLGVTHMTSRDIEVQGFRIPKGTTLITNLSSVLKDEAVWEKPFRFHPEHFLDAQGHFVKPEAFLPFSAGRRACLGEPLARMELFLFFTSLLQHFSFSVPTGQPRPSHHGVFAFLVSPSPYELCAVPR

Regarding `Cc1cccc2c(C(=O)OCC34CCN(CC3)CC4)c[nH]c12` [Compound 19, quinuclidin-4-ylmethyl 7-methyl-1H-indole-3-carboxylate], the IC50 (in general, the midpoint of a concentration-inhibition curve) is 0.764 µM in [1]; more than 10 µM in data set [4]; more than 10 µM in [5] (read-out: 1A2 IC50, Protocol 2); more than 10 µM in data set [6] (read-out: 2D6 IC50, Protocol 2). For the same molecule, the Ki – broadly, the dissociation constant of the complex between target and ligand, obtained from inhibition or displacement – in [1] is 0.665 µM. In data set [2] (human, microsomes, pH 7.4), this molecule registered an HLM of less than 13.608 mL/min/kg. In [3] (rat, microsomes, pH 7.4), this molecule had an RLM of 280.991 mL/min/kg.

`COc1cc(C)c2c(C(=O)OCC34CCN(CC3)CC4)c[nH]c2c1` [Compound 37, quinuclidin-4-ylmethyl 6-methoxy-4-methyl-1H-indole-3-carboxylate] came in with an HLM in data set [2] (human, microsomes) of 20.18 mL/min/kg. Further, in [3] (rat, microsomes), the RLM was 33.07 mL/min/kg. For the same molecule, the T1/2 entry in data set [7] (human) is listed as “∞”. The “% Remaining @ 2 h” value in [7] (human, 2 h) was 108.49%. The IC50 in [8] was more than 10 µM; in data set [5] (read-out: 1A2 IC50, Protocol 1), more than 10 µM; in data set [9], more than 10 µM; in data set [10] it was more than 10 µM.

As for `COc1cc(Cl)c2c(C(=O)OCC34CCN(CC3)CC4)c[nH]c2c1` [Compound 38, quinuclidin-4-ylmethyl 4-chloro-6-methoxy-1H-indole-3-carboxylate], the IC50 was 0.396 µM in [1]; more than 10 µM in data set [8]; more than 10 µM in data set [4] (45 min); more than 10 µM in data set [5] (read-out: 1A2 IC50, Protocol 1). The Ki in data set [1] was determined as 0.341 µM. Also, in data set [2] (human, microsomes), the HLM was 8.15 mL/min/kg. This molecule displayed an RLM in [3] (rat, microsomes) of 76.79 mL/min/kg. Moreover, the T1/2 entry in data set [7] (human) is “∞”. Further, in data set [7] (human, 2 h), the “% Remaining @ 2 h” value stood at 96.52%.

In the case of `O=C(OCC12CCN(CC1)CC2)c1c[nH]c2cc(F)cc(Br)c12` [Compound 41, quinuclidin-4-ylmethyl 4-bromo-6-fluoro-1H-indole-3-carboxylate], the IC50 was 0.76 µM in data set [1]; more than 10 µM in [8]; more than 10 µM in data set [5] (read-out: 1A2 IC50, Protocol 1); more than 10 µM in [9]; more than 10 µM in data set [10]. This molecule also displayed a Ki in data set [1] of 0.655 µM. In data set [2] (human, microsomes), this molecule returned an HLM of 7.55 mL/min/kg. In data set [3] (rat, microsomes), this molecule had an RLM of 86.59 mL/min/kg. Besides, the T1/2 result in data set [7] (human) is “∞”. Also, in [7] (human, 2 h), the “% Remaining @ 2 h” value stood at 120.27%.

The molecule `O=C(OCC12CCN(CC1)CC2)c1c[nH]c2cc(Cl)cc(Br)c12` [Compound 42, quinuclidin-4-ylmethyl 4-bromo-6-chloro-1H-indole-3-carboxylate] yielded an HLM in data set [2] (human, microsomes) of 12.43 mL/min/kg. This molecule came in with an RLM in data set [3] (rat, microsomes) of 55.27 mL/min/kg. Besides, the “% Remaining @ 2 h” value in data set [7] (human, 2 h) came out at 72.21%. For the same molecule, the IC50 was more than 10 µM in data set [8]; more than 10 µM in [5] (read-out: 1A2 IC50, Protocol 1); more than 10 µM in data set [9]; more than 10 µM in [10].

As to `COc1ccc2[nH]cc(C(=O)OCC34CCN(CC3)CC4)c2c1Br` [Compound 47, quinuclidin-4-ylmethyl 4-bromo-5-methoxy-1H-indole-3-carboxylate], the IC50 in data set [1] was 0.0333 µM; in data set [8], more than 10 µM; in [4] (45 min) it was more than 10 µM; in data set [5] (read-out: 1A2 IC50, Protocol 1) it was more than 10 µM. In data set [1], this molecule came in with a Ki of 0.0285 µM. In addition, the HLM in [2] (human, microsomes) stood at 13.5926 mL/min/kg. Also, the RLM in data set [3] (rat, microsomes) is given as 541.358 mL/min/kg. Moreover, in data set [7] (human, 2 h), the “% Remaining @ 2 h” value stood at 72.43%.

For `COc1cc(Br)c2c(C(=O)OCC34CCN(CC3)CC4)c[nH]c2c1` [Compound 48, quinuclidin-4-ylmethyl 4-bromo-6-methoxy-1H-indole-3-carboxylate], the IC50 was 0.42 µM in [1]; more than 10 µM in [4] (45 min); more than 10 µM in data set [11] (setting [12]); more than 10 µM in [11] (setting [13]); more than 10 µM in data set [5] (read-out: 1A2 IC50, Protocol 1); more than 10 µM in [6] (read-out: 2D6 IC50, Protocol 1). In [1], this molecule returned a Ki of 0.36 µM. This molecule came in with an HLM in data set [2] (human, microsomes) of 7.539 mL/min/kg. Also, the RLM in [3] (rat, microsomes) was 69.1781 mL/min/kg. Further, the “% Remaining @ 2 h” value in data set [7] (human, 2 h) came to 101.03%.

Turning to `Cc1cc(Br)c2c(C(=O)OCC34CCN(CC3)CC4)c[nH]c2c1` [Compound 49, quinuclidin-4-ylmethyl 4-bromo-6-methyl-1H-indole-3-carboxylate], the IC50 was 0.25 µM in data set [1]; more than 10 µM in data set [8]; more than 10 µM in [4] (45 min); more than 10 µM in data set [5] (read-out: 1A2 IC50, Protocol 1). In addition, the affinity in data set [1] corresponds to a Ki of 0.214 µM. The same molecule showed an HLM in data set [2] (human, microsomes) of 5.963 mL/min/kg. In addition, the RLM in data set [3] (rat, microsomes) is 254.566 mL/min/kg. For the same molecule, in [7] (human, 2 h), the “% Remaining @ 2 h” value was found to be 93.39%.

Consider `Cc1cc(Cl)cc2[nH]cc(C(=O)OCC34CCN(CC3)CC4)c12` [Compound 50, quinuclidin-4-ylmethyl 6-chloro-4-methyl-1H-indole-3-carboxylate], for which the IC50 in [1] was 1.29 µM; in [8], more than 10 µM; in data set [5] (read-out: 1A2 IC50, Protocol 1) it was more than 10 µM; in data set [9], more than 10 µM; in data set [10], more than 10 µM. The Ki in data set [1] turned out to be 1.1 µM. Besides, the HLM in data set [2] (human, microsomes) amounted to 2.98 mL/min/kg. The RLM in data set [3] (rat, microsomes) came out at 187.575 mL/min/kg. Also, the T1/2 entry in [7] (human) is on record as “∞”. In data set [7] (human, 2 h), the “% Remaining @ 2 h” value turned out to be 100.92%.

With `Cc1cc(C)c2c(C(=O)OCC34CCN(CC3)CC4)c[nH]c2c1` [Compound 54, quinuclidin-4-ylmethyl 4,6-dimethyl-1H-indole-3-carboxylate], the IC50 in data set [1] was 0.4 µM; in [8] it was more than 10 µM; in data set [4] (45 min) it was more than 10 µM; in data set [5] (read-out: 1A2 IC50, Protocol 1) it was more than 10 µM. In data set [1], the Ki is 0.343 µM. The HLM in data set [2] (human, microsomes) is reported as 5.294 mL/min/kg. The molecule also registered an RLM in data set [3] (rat, microsomes) of 175.357 mL/min/kg. Besides, the “% Remaining @ 2 h” value in data set [7] (human, 2 h) was 89.87%.

As for `Cc1cc2c(C(=O)OCC34CCN(CC3)CC4)c[nH]c2cc1O` [Compound 55, quinuclidin-4-ylmethyl 6-hydroxy-5-methyl-1H-indole-3-carboxylate], the IC50 was 0.0523 µM in [1]; more than 10 µM in data set [8]; more than 10 µM in [4] (45 min); more than 10 µM in [5] (read-out: 1A2 IC50, Protocol 1); more than 10 µM in data set [6] (read-out: 2D6 IC50, Protocol 1). In data set [1], this molecule yielded a Ki of 0.0448 µM. In [2] (human, microsomes), this molecule registered an HLM of 10.3473 mL/min/kg. The molecule also showed an RLM in data set [3] (rat, microsomes) of 45.1417 mL/min/kg. Also, in data set [7] (human, 2 h), the “% Remaining @ 2 h” value worked out at 40.33%.

`COc1cc2[nH]cc(C(=O)OCC34CCN(CC3)CC4)c2cc1C` [Compound 56, quinuclidin-4-ylmethyl 6-methoxy-5-methyl-1H-indole-3-carboxylate]: the IC50 in data set [1] is 0.644 µM; in data set [8], more than 10 µM; in data set [4] (45 min), more than 10 µM; in data set [5] (read-out: 1A2 IC50, Protocol 1), more than 10 µM. For the same molecule, the affinity in data set [1] corresponds to a Ki of 0.552 µM. In [2] (human, microsomes), this molecule returned an HLM of 4.868 mL/min/kg. In data set [3] (rat, microsomes), this molecule returned an RLM of 1196.24 mL/min/kg. Also, the “% Remaining @ 2 h” value in [7] (human, 2 h) is 77.82%.

With `Cl.O=C(OCC12CCN(CC1)CC2)c1c[nH]c2cc(O)c(F)cc12` [Compound 59, Quinuclidin-4-ylmethyl 5-fluoro-6-hydroxy-1H-indole-3-carboxylate hydrochloride], the IC50 in data set [1] was 0.0701 µM; in [11] (setting [12]) it was more than 10 µM; in data set [11] (setting [13]) it was more than 10 µM; in [5] (read-out: 1A2 IC50, Protocol 1) it was more than 10 µM; in data set [9], more than 10 µM; in data set [6] (read-out: 2D6 IC50, Protocol 1) it was more than 10 µM. The IC50 in [10] is 20.9 µM. The molecule also showed a Ki in data set [1] of 0.0602 µM. In data set [2] (Protocol No. 1, human liver microsomes), the HLM came out at 0 mL/min/kg. This molecule also came in with an RLM in [3] (Protocol No. 1, rat liver microsomes) of 24.713 mL/min/kg. In addition, in data set [7] (Protocol No. 2, 37° C.), the “% Remaining @ 2 h” value was 53.78%.

For `Cc1cc(O)cc2[nH]cc(C(=O)OCC34CCN(CC3)CC4)c12` [Compound 83, quinuclidin-4-ylmethyl 6-hydroxy-4-methyl-1H-indole-3-carboxylate], the IC50 in data set [1] was 0.0318 µM; in data set [8] it was more than 10 µM; in data set [5] (read-out: 1A2 IC50, Protocol 1) it was more than 10 µM; in data set [9] it was more than 10 µM; in data set [10], more than 10 µM. For the same molecule, in data set [1], the Ki amounted to 0.0279 µM. The same molecule yielded an HLM in data set [2] (human, microsomes) of 2.7 mL/min/kg. Further, the RLM in data set [3] (rat, microsomes) was found to be 14.09 mL/min/kg. Besides, the “% Remaining @ 2 h” value in [7] (human, 2 h) was 71.57%.
